Experimental data published in the supplement of paper PMC11208160.

Assay: recombinant barcode read abundance after kanamycin selection (control-corrected) (log10(CPM+1)); higher = more efficient recombination; sequences stand for … in AGTGCAGAGAAAATCGGCCAGTTTTCTCTGCCTGCAGTCCGCATGCCGT…AGATTTATGCAGCGGACTGCCTTTCTCCCAAAGTGATAAACCGGACAGTATCATGGACCGGTTTTCCCGGTAATCCGTATTTGCAAGGTTGGTTTCACT; site = the 11-nt target
Outline: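 A promoter, a target, a barcode and the first 104 bridge RNA bases under J23119 made up each oligo. Oligos were Gibson-cloned into a vector bearing the other 73 bp and a T7-inducible recombinase, then co-electroporated into E. coli with a donor plasmid and plated in duplicate on chloramphenicol/ampicillin LB agar (control) or chloramphenicol/ampicillin/kanamycin with 0.1 mM IPTG. Recombination efficiency is the averaged, control-corrected counts per million of recombinant-junction barcodes. Reported values are log10(CPM+1).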
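Note: IS621 recombinase and bridge RNA in Escherichia coli cells.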

Sequence	recombinant barcode read abundance (log10)
TAGCTCCCTTGGGTTCTAACCTGTTGCCC (site TAGCTCCCTGG)	0.872
TAGCTCCCTTGGGTTCTAACCTGTTGCCC (site TAGCTCCCTTG)	0.0924
TAGCTGACTTGGGTTCTAACCTGTTGCCC (site GTTTGACCTCC)	0.136
TAGCTGACTTGGGTTCTAACCTGTTGCCC (site TAGCTGACTGG)	0.932
TAGCTGTCTTGGGTTCTAACCTGTTGCGT (site AATCTGTCTAC)	0.106
TAGCTGTCTTGGGTTCTAACCTGTTGCGT (site TAGCTGTCTAC)	2.29
TAGGATACTTGGGTTCTAACCTGTTGCAC (site TAGGATACTAT)	0.34
TAGGATACTTGGGTTCTAACCTGTTGCAC (site TAGGATACTCT)	0.729
TAGGATACTTGGGTTCTAACCTGTTGCAC (site TAGGATACTGT)	2.08
TAGGATACTTGGGTTCTAACCTGTTGCAC (site TAGGATACTTT)	0.107
TAGGATACTTGGGTTCTAACCTGTTGCAG (site TAGGATACTAT)	0.29
TAGGATACTTGGGTTCTAACCTGTTGCAG (site TAGGATACTCT)	2.5
TAGGATACTTGGGTTCTAACCTGTTGCAG (site TAGGATACTGT)	0.106
TAGGATACTTGGGTTCTAACCTGTTGCAG (site TAGGATACTTT)	0.351
TAGGATACTTGGGTTCTAACCTGTTGCAT (site TAGGATACTAT)	1.55
TAGGATACTTGGGTTCTAACCTGTTGCAT (site TAGGATACTCT)	0.583
TAGGATACTTGGGTTCTAACCTGTTGCAT (site TAGGATACTGT)	0.0987
TAGGATACTTGGGTTCTAACCTGTTGCAT (site TAGGATACTTT)	0.0945
TAGGATACTTGGGTTCTAACCTGTTGCGT (site TAGGAAACTAC)	0.314
TAGGATACTTGGGTTCTAACCTGTTGCGT (site TAGGACACTAC)	0.928
TAGGATACTTGGGTTCTAACCTGTTGCGT (site TAGGAGACTAC)	0.266
TAGGATACTTGGGTTCTAACCTGTTGCGT (site TAGGATACTAC)	3.02

Sequence	recombinant barcode read abundance (log10)
TAGGATCCTTGGGTTCTAACCTGTTGCGA (site ACCCGCTCTAG)	0.205
TAGGATCCTTGGGTTCTAACCTGTTGCGA (site TAGGATCCTTC)	2.71
TAGGATTCTTGGGTTCTAACCTGTTGCCT (site TAATATTCTAG)	0.0335
TAGGATTCTTGGGTTCTAACCTGTTGCCT (site TAGGATTCTAG)	1.88
TAGGCGCCTTGGGTTCTAACCTGTTGCCT (site TAGGCGCCTAA)	0.173
TAGGCGCCTTGGGTTCTAACCTGTTGCCT (site TAGGCGCCTAC)	0.0375
TAGGCGCCTTGGGTTCTAACCTGTTGCCT (site TAGGCGCCTAG)	0.252
TAGGCGCCTTGGGTTCTAACCTGTTGCCT (site TAGGCGCCTAT)	0.235
TAGGCTACTTGGGTTCTAACCTGTTGCAA (site TAGGCTACTAT)	0.144
TAGGCTACTTGGGTTCTAACCTGTTGCAA (site TAGGCTACTCT)	0.0112
TAGGCTACTTGGGTTCTAACCTGTTGCAA (site TAGGCTACTGT)	1.49
TAGGCTACTTGGGTTCTAACCTGTTGCAA (site TAGGCTACTTT)	1.33
TAGGCTACTTGGGTTCTAACCTGTTGCAC (site TAGGCTACTAT)	0.147
TAGGCTACTTGGGTTCTAACCTGTTGCAC (site TAGGCTACTCT)	0.131
TAGGCTACTTGGGTTCTAACCTGTTGCAC (site TAGGCTACTGT)	1.19
TAGGCTACTTGGGTTCTAACCTGTTGCAC (site TAGGCTACTTT)	0.00761
TAGGCTACTTGGGTTCTAACCTGTTGCCA (site ACCCAATCTGT)	0.0662
TAGGCTACTTGGGTTCTAACCTGTTGCCA (site TAGGCTACTTG)	0.129
TAGGCTCCTTGGGTTCTAACCTGTTGCAG (site TAGGCTCCTAT)	0.271
TAGGCTCCTTGGGTTCTAACCTGTTGCAG (site TAGGCTCCTCT)	0.429
TAGGCTCCTTGGGTTCTAACCTGTTGCAG (site TAGGCTCCTGT)	0.0237
TAGGCTCCTTGGGTTCTAACCTGTTGCAG (site TAGGCTCCTTT)	0.0834

Sequence	recombinant barcode read abundance (log10)
TAGGCTGCTTGGGTTCTAACCTGTTGCCT (site TAGACTGCTAG)	0.359
TAGGCTGCTTGGGTTCTAACCTGTTGCCT (site TAGCCTGCTAG)	0
TAGGCTGCTTGGGTTCTAACCTGTTGCCT (site TAGGCTGCTAG)	0.177
TAGGCTGCTTGGGTTCTAACCTGTTGCCT (site TAGTCTGCTAG)	0.519
TAGGTTCCTTGGGTTCTAACCTGTTGCAT (site TAGGTACCTAT)	0.795
TAGGTTCCTTGGGTTCTAACCTGTTGCAT (site TAGGTCCCTAT)	0.335
TAGGTTCCTTGGGTTCTAACCTGTTGCAT (site TAGGTGCCTAT)	0.6
TAGGTTCCTTGGGTTCTAACCTGTTGCAT (site TAGGTTCCTAT)	1.04
TAGTACCCTTGGGTTCTAACCTGTTGCAT (site TAGTACCCTAT)	0.43
TAGTACCCTTGGGTTCTAACCTGTTGCAT (site TAGTACCCTCT)	0.0976
TAGTACCCTTGGGTTCTAACCTGTTGCAT (site TAGTACCCTGT)	0.0568
TAGTACCCTTGGGTTCTAACCTGTTGCAT (site TAGTACCCTTT)	0.227
TAGTAGTCTTGGGTTCTAACCTGTTGCCT (site TAGTAGTCTAA)	0.0538
TAGTAGTCTTGGGTTCTAACCTGTTGCCT (site TAGTAGTCTAC)	0.0503
TAGTAGTCTTGGGTTCTAACCTGTTGCCT (site TAGTAGTCTAG)	1.64
TAGTAGTCTTGGGTTCTAACCTGTTGCCT (site TAGTAGTCTAT)	0.108
TAGTATCCTTGGGTTCTAACCTGTTGCCA (site TACTACCCTTG)	0.142
TAGTATCCTTGGGTTCTAACCTGTTGCCA (site TAGTATCCTTG)	0.146
TAGTATCCTTGGGTTCTAACCTGTTGCTA (site TAGTATCCTTA)	0.714
TAGTATCCTTGGGTTCTAACCTGTTGCTA (site TAGTATGCTTA)	0.0411
TAGTCGTCTTGGGTTCTAACCTGTTGCTT (site TAGTCGTCTAA)	0.456
TAGTCGTCTTGGGTTCTAACCTGTTGCTT (site TAGTCGTCTAG)	0.309

Sequence	recombinant barcode read abundance (log10)
TAGTCTGCTTGGGTTCTAACCTGTTGCCT (site TAGACTGCTAG)	0.0965
TAGTCTGCTTGGGTTCTAACCTGTTGCCT (site TAGCCTGCTAG)	0.27
TAGTCTGCTTGGGTTCTAACCTGTTGCCT (site TAGGCTGCTAG)	0.0685
TAGTCTGCTTGGGTTCTAACCTGTTGCCT (site TAGTCTGCTAG)	0.0515
TAGTGCTCTTGGGTTCTAACCTGTTGCCT (site TAGTGCTCTAG)	1.12
TAGTGCTCTTGGGTTCTAACCTGTTGCCT (site TAGTGCTCTCG)	0.434
TAGTGCTCTTGGGTTCTAACCTGTTGCCT (site TAGTGCTCTGG)	0.157
TAGTGCTCTTGGGTTCTAACCTGTTGCCT (site TAGTGCTCTTG)	0.178
TAGTGGCCTTGGGTTCTAACCTGTTGCCA (site TAGTGGACTTG)	0.095
TAGTGGCCTTGGGTTCTAACCTGTTGCCA (site TAGTGGCCTTG)	0.261
TAGTGTACTTGGGTTCTAACCTGTTGCCT (site TAGTGTACTAG)	0.579
TAGTGTACTTGGGTTCTAACCTGTTGCCT (site TAGTGTCCTAG)	0.16
TAGTGTACTTGGGTTCTAACCTGTTGCCT (site TAGTGTGCTAG)	0.221
TAGTGTACTTGGGTTCTAACCTGTTGCCT (site TAGTGTTCTAG)	0.376
TAGTGTCCTTGGGTTCTAACCTGTTGCAT (site TAGTGTCCTAT)	0.769
TAGTGTCCTTGGGTTCTAACCTGTTGCAT (site TAGTGTTCTAT)	0.155
TAGTTAACTTGGGTTCTAACCTGTTGCCA (site TAGTTAACTTG)	0.569
TAGTTAACTTGGGTTCTAACCTGTTGCCA (site TAGTTCACTTG)	0.0909
TAGTTAACTTGGGTTCTAACCTGTTGCCA (site TAGTTGACTTG)	0.0635
TAGTTAACTTGGGTTCTAACCTGTTGCCA (site TAGTTTACTTG)	0.0484
